Data as given in ChEMBL document CHEMBL3351765, “Recent progress in sodium channel modulators for pain” (Bioorg Med Chem Lett, 2014).

What was measured:
[1] = target: T1, Sodium channel protein type 9 subunit alpha (Homo sapiens, UniProt Q15858); experiment: Inhibition of human Nav1.7 expressed in HEK293 cells by FLIPR method; assay type: cell-based
[2] = target: T1, Sodium channel protein type 9 subunit alpha; experiment: Inhibition of Nav1.7 (unknown origin) expressed in HEK293 cells by PatchXpress method; assay type: cell-based
[3] = target: T2, Sodium channel protein type 5 subunit alpha (Homo sapiens, UniProt Q14524); experiment: Inhibition of Nav1.5 (unknown origin) expressed in HEK293 cells by IonWorks patch-clamp method; assay type: cell-based
T2 sequence (Q14524 whole entry): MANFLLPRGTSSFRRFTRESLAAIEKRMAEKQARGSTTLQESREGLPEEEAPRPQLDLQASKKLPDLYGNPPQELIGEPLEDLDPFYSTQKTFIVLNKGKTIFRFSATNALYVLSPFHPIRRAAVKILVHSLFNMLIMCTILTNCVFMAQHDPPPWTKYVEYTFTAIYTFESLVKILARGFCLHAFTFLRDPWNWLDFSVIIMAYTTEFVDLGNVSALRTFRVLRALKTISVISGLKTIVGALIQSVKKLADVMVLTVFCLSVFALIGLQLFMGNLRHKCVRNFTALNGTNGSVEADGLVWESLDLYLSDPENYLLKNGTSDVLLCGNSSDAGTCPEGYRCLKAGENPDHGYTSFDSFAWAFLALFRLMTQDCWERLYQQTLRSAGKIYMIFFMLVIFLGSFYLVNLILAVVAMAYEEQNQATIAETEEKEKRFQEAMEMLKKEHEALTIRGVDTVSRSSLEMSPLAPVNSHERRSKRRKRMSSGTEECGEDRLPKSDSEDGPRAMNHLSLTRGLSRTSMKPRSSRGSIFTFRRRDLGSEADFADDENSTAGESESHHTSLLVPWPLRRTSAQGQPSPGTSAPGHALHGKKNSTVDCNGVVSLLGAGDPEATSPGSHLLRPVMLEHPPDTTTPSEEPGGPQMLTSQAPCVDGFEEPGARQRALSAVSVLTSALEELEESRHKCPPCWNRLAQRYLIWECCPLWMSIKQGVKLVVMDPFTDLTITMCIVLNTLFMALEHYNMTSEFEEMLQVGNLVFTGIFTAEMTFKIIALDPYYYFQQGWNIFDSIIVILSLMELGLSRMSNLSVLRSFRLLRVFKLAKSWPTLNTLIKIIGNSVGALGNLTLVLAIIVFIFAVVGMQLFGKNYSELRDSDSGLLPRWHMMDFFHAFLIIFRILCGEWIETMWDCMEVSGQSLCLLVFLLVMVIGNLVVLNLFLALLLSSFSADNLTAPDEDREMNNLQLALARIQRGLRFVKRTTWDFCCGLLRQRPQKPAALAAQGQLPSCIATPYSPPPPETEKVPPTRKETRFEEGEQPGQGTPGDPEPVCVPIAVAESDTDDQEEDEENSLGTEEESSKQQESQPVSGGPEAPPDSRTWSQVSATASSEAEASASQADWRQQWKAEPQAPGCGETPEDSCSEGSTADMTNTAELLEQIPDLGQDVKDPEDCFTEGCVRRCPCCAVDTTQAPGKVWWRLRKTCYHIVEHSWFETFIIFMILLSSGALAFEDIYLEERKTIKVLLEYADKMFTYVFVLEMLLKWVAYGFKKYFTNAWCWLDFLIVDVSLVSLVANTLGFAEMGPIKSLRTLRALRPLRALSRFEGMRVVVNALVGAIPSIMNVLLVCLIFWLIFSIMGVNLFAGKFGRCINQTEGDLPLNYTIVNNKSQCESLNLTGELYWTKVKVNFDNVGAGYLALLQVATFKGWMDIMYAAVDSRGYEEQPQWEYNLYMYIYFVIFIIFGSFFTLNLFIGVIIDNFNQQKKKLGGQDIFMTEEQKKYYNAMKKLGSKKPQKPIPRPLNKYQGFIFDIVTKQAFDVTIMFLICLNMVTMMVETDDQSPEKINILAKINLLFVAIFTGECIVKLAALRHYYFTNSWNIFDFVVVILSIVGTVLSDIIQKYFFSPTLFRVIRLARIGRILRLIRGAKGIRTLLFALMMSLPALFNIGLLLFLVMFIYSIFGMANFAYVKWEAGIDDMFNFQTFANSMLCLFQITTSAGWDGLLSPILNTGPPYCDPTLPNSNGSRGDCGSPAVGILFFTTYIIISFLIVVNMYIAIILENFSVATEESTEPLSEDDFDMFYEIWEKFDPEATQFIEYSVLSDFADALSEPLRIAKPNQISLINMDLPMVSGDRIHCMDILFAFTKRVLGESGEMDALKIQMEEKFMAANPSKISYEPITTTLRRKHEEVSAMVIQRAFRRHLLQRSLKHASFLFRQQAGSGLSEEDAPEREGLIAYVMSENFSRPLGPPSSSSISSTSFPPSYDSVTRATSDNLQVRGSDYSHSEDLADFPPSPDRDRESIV

[4] = target: T2, Sodium channel protein type 5 subunit alpha; experiment: Inhibition of Nav1.5 (unknown origin)
[5] = target: T1, Sodium channel protein type 9 subunit alpha; experiment: Inhibition of human Nav1.7 expressed in HEK293 cells by electrophysiology method; assay type: cell-based
[6] = target: T1, Sodium channel protein type 9 subunit alpha; experiment: Inhibition of human Nav1.7 expressed in HEK cells by patch-clamp method; assay type: cell-based, HEK293
HEK293 = experiment: Selectivity ratio of IC50 for human Nav1.5 to IC50 for human Nav1.7 expressed in HEK293 cells; assay type: cell-based
[7] = target: T1, Sodium channel protein type 9 subunit alpha; experiment: Inhibition of human Nav1.7 expressed in HEK293 cells […] by QPatch method; assay type: cell-based
[8] = target: T1, Sodium channel protein type 9 subunit alpha; experiment: Inhibition of human Nav1.7 expressed in HEK cells by whole-cell patch-clamp technique; assay type: cell-based, HEK293
[9] = target: T1, Sodium channel protein type 9 subunit alpha; experiment: Inhibition of Nav1.7 (unknown origin)

T1 sequence (Q15858 whole entry): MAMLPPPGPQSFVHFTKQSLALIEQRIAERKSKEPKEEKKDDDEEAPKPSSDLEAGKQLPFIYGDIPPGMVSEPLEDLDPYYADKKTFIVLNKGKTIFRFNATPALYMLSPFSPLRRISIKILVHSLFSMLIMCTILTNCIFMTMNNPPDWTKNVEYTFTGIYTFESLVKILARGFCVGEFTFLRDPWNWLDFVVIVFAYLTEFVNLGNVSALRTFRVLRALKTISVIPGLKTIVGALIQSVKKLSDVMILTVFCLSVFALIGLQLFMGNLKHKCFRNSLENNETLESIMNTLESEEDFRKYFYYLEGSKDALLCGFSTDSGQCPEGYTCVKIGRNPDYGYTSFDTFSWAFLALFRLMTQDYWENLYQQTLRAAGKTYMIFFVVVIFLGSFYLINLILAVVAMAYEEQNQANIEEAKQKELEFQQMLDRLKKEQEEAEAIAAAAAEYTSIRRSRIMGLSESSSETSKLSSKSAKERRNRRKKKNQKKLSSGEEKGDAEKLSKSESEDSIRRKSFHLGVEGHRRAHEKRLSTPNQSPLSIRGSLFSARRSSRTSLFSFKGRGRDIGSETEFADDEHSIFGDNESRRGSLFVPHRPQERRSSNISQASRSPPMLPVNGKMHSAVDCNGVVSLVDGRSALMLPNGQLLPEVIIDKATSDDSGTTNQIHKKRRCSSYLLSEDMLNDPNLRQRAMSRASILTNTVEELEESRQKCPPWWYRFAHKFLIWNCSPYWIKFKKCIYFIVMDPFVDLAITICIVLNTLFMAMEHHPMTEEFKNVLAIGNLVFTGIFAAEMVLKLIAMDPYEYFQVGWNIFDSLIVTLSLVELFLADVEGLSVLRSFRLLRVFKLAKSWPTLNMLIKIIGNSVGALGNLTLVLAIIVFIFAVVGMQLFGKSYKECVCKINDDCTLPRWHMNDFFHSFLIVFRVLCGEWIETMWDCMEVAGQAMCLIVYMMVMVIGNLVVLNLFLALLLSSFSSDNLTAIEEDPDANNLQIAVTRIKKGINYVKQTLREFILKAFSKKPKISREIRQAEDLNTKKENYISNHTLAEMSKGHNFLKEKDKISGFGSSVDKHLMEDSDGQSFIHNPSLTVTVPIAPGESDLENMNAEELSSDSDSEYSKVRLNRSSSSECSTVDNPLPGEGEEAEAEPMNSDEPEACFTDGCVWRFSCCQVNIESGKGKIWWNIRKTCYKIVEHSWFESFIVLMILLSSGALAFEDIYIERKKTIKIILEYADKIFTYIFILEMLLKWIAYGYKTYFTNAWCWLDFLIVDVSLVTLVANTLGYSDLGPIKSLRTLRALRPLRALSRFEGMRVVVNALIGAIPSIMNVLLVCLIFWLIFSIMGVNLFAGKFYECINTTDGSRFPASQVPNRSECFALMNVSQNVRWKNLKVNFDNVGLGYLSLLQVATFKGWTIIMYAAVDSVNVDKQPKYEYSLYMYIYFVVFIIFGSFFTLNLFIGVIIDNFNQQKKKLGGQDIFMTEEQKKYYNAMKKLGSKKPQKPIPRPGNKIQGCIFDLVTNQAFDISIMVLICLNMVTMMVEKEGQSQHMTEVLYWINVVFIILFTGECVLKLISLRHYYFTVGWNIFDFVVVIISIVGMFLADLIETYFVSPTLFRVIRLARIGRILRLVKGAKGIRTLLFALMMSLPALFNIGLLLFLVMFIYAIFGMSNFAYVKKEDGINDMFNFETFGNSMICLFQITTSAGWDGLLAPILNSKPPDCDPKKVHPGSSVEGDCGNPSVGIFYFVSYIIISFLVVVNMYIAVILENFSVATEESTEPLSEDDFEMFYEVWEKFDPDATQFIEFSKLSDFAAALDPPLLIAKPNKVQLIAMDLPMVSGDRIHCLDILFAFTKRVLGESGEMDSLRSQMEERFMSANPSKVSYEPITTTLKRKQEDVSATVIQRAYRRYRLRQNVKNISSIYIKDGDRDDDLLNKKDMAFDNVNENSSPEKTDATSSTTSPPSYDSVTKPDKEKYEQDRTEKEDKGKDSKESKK

CN(C)c1ccc(C(=O)NC2CC23CCN(c2ccccc2)CC3)c2ccccc12 (centres undefined)
IC50 [1]: 237 nM

O=C(NCC1CCCCN1)c1ccc(Oc2cc(C(F)(F)F)cc(C(F)(F)F)c2)cc1 (centres undefined)
IC50 [1]: 1150 nM

Cn1cc(-c2ccc(C(F)(F)F)cc2-c2cn[nH]c2)c2ccc(S(=O)(=O)Nc3ncns3)cc21
IC50 [2]: 38 nM | IC50 [3]: > 10000 nM

Nc1noc2ccc(-c3cc(Cl)ccc3Oc3cc(F)c(S(=O)(=O)Nc4ncns4)cc3F)cc12
IC50 [4]: > 1000 nM

NC(=O)c1cnc(-c2ccc(Oc3cc(F)cc(Cl)c3)cc2)nc1[C@@H](O)CO
IC50 [1]: 67 nM | Ki [5]: 27 nM

O=S(=O)(Nc1ncns1)c1ccc2c(c1)OCCN2c1ccc(C(F)(F)F)cc1Cl
IC50 [3]: > 10000 nM

O=S(=O)(Nc1ncns1)N1CCc2c(cccc2-c2ccc(C(F)(F)F)cc2C2=CCNCC2)C1
IC50 [3]: > 10000 nM

COc1cc(C(=O)N2CCC3(CC2)CN(CC(F)F)CC(c2ccccn2)O3)ccc1OC(C)C (centres undefined)
IC50 [6]: < 2000 nM

Cc1oc2nc(-c3ccccc3Cl)nn2c1CNCCc1ccccc1Cl
IC50 [1]: 620 nM

COc1cc(C(=O)N2CCC3(CC2)c2ccc(C(F)(F)F)n2CCN3C)ccc1OC(C)C
IC50 [6]: < 2000 nM

C[C@H](c1ccccc1C1(F)CNC1)n1c(=O)oc2cc(S(=O)(=O)Nc3nccs3)c(F)cc21
Ratio IC50 (HEK293): 5540

CCOC1CC(c2scnc2C)OC2(CCN(C(=O)c3ccc(OC(C)C)c(C)c3)CC2)C1 (centres undefined)
IC50 [6]: < 2000 nM

Cc1ccc(OCC(C)C)c(-c2cccc([C@H]3CC[C@]4(CCN(C)C4=O)N3)c2)c1
IC50 [7]: 398 nM

CCCCCN1C(=O)COCC1c1cncc(-c2ccc(OC(F)(F)F)cc2)c1 (centres undefined)
IC50 [1]: 770 nM

CC1(COc2ccc(-n3nc(C4CC4)c4cc(C(=O)NS(C)(=O)=O)ccc43)cn2)CC1
IC50 [8]: 130 nM

O=S(=O)(Nc1ncns1)c1cc(F)c(OC[C@@H]2CNCC[C@H]2c2ccc(Cl)cc2)cc1F
IC50 [9]: 3.3 nM

CCOc1ncccc1-c1cc(C(=O)NS(C)(=O)=O)ccc1Oc1ccc(Cl)c(C(F)(F)F)c1
IC50 [8]: 35 nM
